Data published in PubChem BioAssay AID1963858 (Molecular Pharmacology Branch, DTP, NCI, 2024).

Tested on: HOP-62 multicell spheroids with HUVEC/MSC, viability
Test: Anticancer human tumor HOP-62 cell line growth inhibition [KRAS2];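 note: viability read after a week of compound exposure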;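 for viability, T/C: 100% = DMSO vehicle-treated spheroids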
Conditions: for IC50: curve of first compound; for viability, T/C: stronger effect = lower value
In short: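 KRAS-mutant tumor cells were grown as spheroids with HUVEC endothelial cells and human MSCs as stroma. Targeted agents were tested alone and with KRAS pathway inhibitors. Doses started at or near clinical Cmax, or 10 microM, descending half-log.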

[1] = second compound 0.1 µM, first compound 0.0316 µM
[2] = second compound 0.1 µM, first compound 0.1 µM
[3] = second compound 0.1 µM, first compound 0.316 µM
[4] = second compound 0.1 µM, first compound 1 µM
[5] = second compound 0.1 µM, first compound 3.16 µM
[6] = second compound 0.1 µM, first compound 10 µM
[7] = second compound 0.316 µM, first compound 0.0316 µM
[8] = second compound 0.316 µM, first compound 0.1 µM
[9] = second compound 0.316 µM, first compound 0.316 µM
[10] = second compound 0.316 µM, first compound 1 µM
[11] = second compound 0.316 µM, first compound 3.16 µM
[12] = second compound 0.316 µM, first compound 10 µM
[13] = second compound 1 µM, first compound 0.0316 µM
[14] = second compound 1 µM, first compound 0.1 µM
[15] = second compound 1 µM, first compound 0.316 µM
[16] = second compound 1 µM, first compound 1 µM
[17] = second compound 1 µM, first compound 3.16 µM
[18] = second compound 1 µM, first compound 10 µM
[19] = second compound 3.16 µM, first compound 0.0316 µM
[20] = second compound 3.16 µM, first compound 0.1 µM
[21] = second compound 3.16 µM, first compound 0.316 µM
[22] = second compound 3.16 µM, first compound 1 µM
[23] = second compound 3.16 µM, first compound 3.16 µM
[24] = second compound 3.16 µM, first compound 10 µM
[25] = second compound 10 µM, first compound 0.0316 µM
[26] = second compound 10 µM, first compound 0.1 µM
[27] = second compound 10 µM, first compound 0.316 µM
[28] = second compound 10 µM, first compound 1 µM
[29] = second compound 10 µM, first compound 3.16 µM
[30] = second compound 10 µM, first compound 10 µM

| Structure (SMILES) | IC50 (second compound 0.1 µM) | IC50 (second compound 0.316 µM) | IC50 (second compound 1 µM) | IC50 (second compound 3.16 µM) | viability, T/C [1] | viability, T/C [2] | viability, T/C [3] | viability, T/C [4] | viability, T/C [5] | viability, T/C [6] | viability, T/C [7] | viability, T/C [8] | viability, T/C [9] | viability, T/C [10] | viability, T/C [11] | viability, T/C [12] | viability, T/C [13] | viability, T/C [14] | viability, T/C [15] | viability, T/C [16] | also measured |
| --- | --- | --- | --- | --- | --- | --- | --- | --- | --- | --- | --- | --- | --- | --- | --- | --- | --- | --- | --- | --- | --- |
| CC1(C)CCC(CN2CCN(c3ccc(C(=O)NS(=O)(=O)c4ccc(NCC5CCOCC5)c([N+](=O)[O-])c4)c(Oc4cnc5[nH]ccc5c4)c3)CC2)=C(c2ccc(Cl)cc2)C1 + CC1OCC2(CCN(c3cnc(Sc4ccnc(N)c4Cl)c(N)n3)CC2)C1N | 3.72 µM | 3.28 µM | 1.31 µM | < 0.0316 µM | 76.5% | 73% | 70% | 72% | 54.3% | 17.2% | 72.3% | 62.2% | 68.3% | 67.6% | 51.1% | 12.6% | 62.3% | 54.4% | 52% | 50.1% | IC50 (second compound 10 µM): < 0.0316 µM; viability, T/C [17]: 44.6%; viability, T/C [18]: 10.6%; viability, T/C [19]: 47.9%; viability, T/C [20]: 45%; viability, T/C [21]: 36.6%; viability, T/C [22]: 26.7%; viability, T/C [23]: 18.1%; viability, T/C [24]: 10.7%; viability, T/C [25]: 37.5%; viability, T/C [26]: 32.9%; viability, T/C [27]: 32%; viability, T/C [28]: 26.6%; viability, T/C [29]: 26.5%; viability, T/C [30]: 6.62% |
| COC(=O)c1ccc2c(C(=Nc3ccc(N(C)C(=O)CN4CCN(C)CC4)cc3)c3ccccc3)c(O)[nH]c2c1 + CC1OCC2(CCN(c3cnc(Sc4ccnc(N)c4Cl)c(N)n3)CC2)C1N | 0.179 µM | 0.105 µM | < 0.0316 µM | < 0.0316 µM | 75.1% | 57.4% | 43.7% | 29.2% | 25.5% | 22.7% | 53.9% | 50.9% | 29.4% | 23.6% | 25.1% | 19.5% | 38.5% | 30% | 24.1% | 20.2% | IC50 (second compound 10 µM): < 0.0316 µM; viability, T/C [17]: 21.6%; viability, T/C [18]: 17.4%; viability, T/C [19]: 27%; viability, T/C [20]: 21.7%; viability, T/C [21]: 18.5%; viability, T/C [22]: 18.4%; viability, T/C [23]: 21.2%; viability, T/C [24]: 14.3%; viability, T/C [25]: 33.5%; viability, T/C [26]: 21.3%; viability, T/C [27]: 27.5%; viability, T/C [28]: 20.4%; viability, T/C [29]: 16.9%; viability, T/C [30]: 11.2% |
| COc1cc(Nc2ncc3c(n2)-c2ccc(Cl)cc2C(c2c(F)cccc2OC)=NC3)ccc1C(=O)O + C=CC(=O)N1CCN(c2nc(OCC3CCCN3C)nc3c2CCN(c2cccc4cccc(C)c24)C3)CC1CC#N | < 0.0316 µM | < 0.0316 µM | < 0.0316 µM | < 0.0316 µM | 35.7% | 28.9% | 25.1% | 22.3% | 17.4% | 11.7% | 24.4% | 19.5% | 17% | 14.3% | 15% | 11.3% | 20.6% | 15.5% | 16.6% | 16.3% | IC50 (second compound 0.0316 µM): < 0.0316 µM; viability, T/C (second compound 0.0316 µM, first compound 0.0316 µM): 42.7%; viability, T/C (second compound 0.0316 µM, first compound 0.1 µM): 35.9%; viability, T/C (second compound 0.0316 µM, first compound 0.316 µM): 32.6%; viability, T/C (second compound 0.0316 µM, first compound 1 µM): 27.1%; viability, T/C (second compound 0.0316 µM, first compound 3.16 µM): 19.7%; viability, T/C (second compound 0.0316 µM, first compound 10 µM): 14.6%; viability, T/C [17]: 13.9%; viability, T/C [18]: 9.29%; viability, T/C [19]: 10.8%; viability, T/C [20]: 1.27%; viability, T/C [21]: 4.55%; viability, T/C [22]: 7.12%; viability, T/C [23]: 1.43%; viability, T/C [24]: 0.67% |
| CC1OCC2(CCN(c3cnc(Sc4ccnc(N)c4Cl)c(N)n3)CC2)C1N (stereo not given) + CNCc1ccccc1-c1csc(C(C)Nc2nc(C)nc3cc(OC)c(OC)cc23)c1 | > 10 µM | > 10 µM | 0.638 µM | < 0.0316 µM | 89.8% | 80.4% | 74.1% | 67.5% | 65.3% | 58.8% | 85.5% | 88% | 69.2% | 53.6% | 52.3% | 49.7% | 82.3% | 76.2% | 58.8% | 45.4% | IC50 (second compound 10 µM): < 0.0316 µM; viability, T/C [17]: 33.5%; viability, T/C [18]: 34.1%; viability, T/C [19]: 34.3%; viability, T/C [20]: 7.49%; viability, T/C [21]: 0.61%; viability, T/C [22]: 0.1%; viability, T/C [23]: 0.15%; viability, T/C [24]: 0.15%; viability, T/C [25]: 0.13%; viability, T/C [26]: 0.17%; viability, T/C [27]: 0.09%; viability, T/C [28]: 0.09%; viability, T/C [29]: 0.6%; viability, T/C [30]: 0.16% |
